Measured values from PMC9756503, “Pharmacodynamic properties for inhibition of cAMP- and cGMP elimination by pentoxifylline remain unaltered in vitro during hypothermia” (Scandinavian Journal of Trauma, Resuscitation and Emergency …, 2022).
Where two headings read alike, the source gives them in different places.

How the values were obtained:
ABCC4 = target: T1, ABCC4 (Homo sapiens, UniProt O15439); test: biochemical; format: biochemical; conditions: for Ki: Cheng-Prusoff, read-out: Ki for inhibition of cAMP-efflux; for [cAMP-efflux inhibition]/[cGMP-efflux inhibition]: ratio between IC50-values; for IC50: read-out: IC50 for inhibition of cAMP-efflux
T1 construct: inside-out vesicles (IOV)s where erythrocytes from healthy, human donors were sampled; endogenous in cells; host or cells: inside-out vesicles from erythrocytes of healthy human donors
T1 sequence (O15439 1-1325): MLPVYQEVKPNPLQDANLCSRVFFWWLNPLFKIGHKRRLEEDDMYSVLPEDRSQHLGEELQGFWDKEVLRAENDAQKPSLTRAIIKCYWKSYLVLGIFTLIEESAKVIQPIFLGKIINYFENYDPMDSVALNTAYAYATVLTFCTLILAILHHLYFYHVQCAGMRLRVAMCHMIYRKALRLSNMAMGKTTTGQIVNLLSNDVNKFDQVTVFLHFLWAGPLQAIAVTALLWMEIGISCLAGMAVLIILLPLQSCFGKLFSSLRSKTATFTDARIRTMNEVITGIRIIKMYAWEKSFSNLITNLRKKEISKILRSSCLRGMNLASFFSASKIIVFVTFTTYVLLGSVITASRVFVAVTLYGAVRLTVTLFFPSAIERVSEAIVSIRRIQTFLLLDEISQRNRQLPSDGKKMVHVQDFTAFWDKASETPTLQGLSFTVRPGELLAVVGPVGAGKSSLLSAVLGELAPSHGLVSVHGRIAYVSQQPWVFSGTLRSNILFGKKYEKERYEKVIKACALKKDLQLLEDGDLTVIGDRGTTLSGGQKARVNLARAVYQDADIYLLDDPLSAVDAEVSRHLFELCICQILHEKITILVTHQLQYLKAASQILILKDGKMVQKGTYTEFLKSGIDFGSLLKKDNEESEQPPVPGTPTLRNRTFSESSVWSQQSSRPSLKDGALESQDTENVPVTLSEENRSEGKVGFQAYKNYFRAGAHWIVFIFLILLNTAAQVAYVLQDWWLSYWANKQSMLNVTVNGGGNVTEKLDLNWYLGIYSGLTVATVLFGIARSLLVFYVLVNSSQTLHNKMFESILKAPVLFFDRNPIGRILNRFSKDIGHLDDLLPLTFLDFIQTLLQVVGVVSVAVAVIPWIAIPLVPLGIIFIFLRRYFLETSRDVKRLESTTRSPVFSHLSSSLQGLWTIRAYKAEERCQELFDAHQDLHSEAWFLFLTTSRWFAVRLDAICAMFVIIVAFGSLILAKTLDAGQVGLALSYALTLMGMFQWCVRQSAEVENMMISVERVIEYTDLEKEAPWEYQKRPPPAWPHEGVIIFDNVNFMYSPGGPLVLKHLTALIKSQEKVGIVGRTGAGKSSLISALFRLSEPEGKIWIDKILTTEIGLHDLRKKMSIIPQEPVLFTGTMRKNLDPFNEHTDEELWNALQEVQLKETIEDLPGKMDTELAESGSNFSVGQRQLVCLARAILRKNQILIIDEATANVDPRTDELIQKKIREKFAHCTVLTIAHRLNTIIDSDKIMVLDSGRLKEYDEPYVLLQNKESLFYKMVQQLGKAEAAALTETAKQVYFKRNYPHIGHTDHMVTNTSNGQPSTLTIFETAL
Description: (§1) Cellular efflux was estimated with inside-out vesicles (IOV)s where erythrocytes from healthy, human donors were sampled. Donors were pre-screened and only admitted as donors by Blodbanken UNN (Department of Immunohematology and Transfusion Medicine, University Hospital of North Norway) if they were healthy. The erythrocytes were separated from plasma by centrifugation and washed. Inside-out vesicles were prepared according to Orvoll et al. with minor modifications. Percentage IOV was verified using acetylcholinesterase accessibility test. Batches of IOVs used in the parallels were made 8 times, including blood from a total of 35 healthy donors.
(§2) IOVs were then incubated with or without 2 mM ATP and 7 different concentrations of pentoxifylline increasing by a factor of 10 ranging from 1.00 nM to 1.00 mM. The incubation solutions also included radioactive labeled [^3H]-cGMP or [^3H]-cAMP (Perkin Elmer, Boston, MA, USA), at a concentration of respectively 2 µM and 20 µM. [^3H]-cAMP was used to assess ABCC4-inhibition and [^3H]-cGMP for ABCC5-inhibition. The assays were performed in triplicates at 3 different days: In total 9 parallels were performed to calculate results for each concentration of pentoxifylline at all temperatures. Incubation time of 60 min was chosen to ensure sufficient quality of the samples for each parallel. The transport was stopped by adding ice cold buffer. The IOVs were then filtered through a nitrocellulose membrane (Bio-Rad Laboratories, Feldkirchen Germany), and the membrane was dried. The dried membranes were later added scintillation fluid and radioactivity was measured using a Packard TopCount NXT (Packard, Downers Grove, IL, USA).
(§3) Analysis and graph production were performed in SigmaPlot 14.0 (Systat Software, San Jose, CA, USA.). Ability to inhibit the different elimination pathways, enzymes and efflux pumps, were calculated as IC50-values, as according to Chou. Ki-values were obtained by using the methods described by Cheng and Prustoff. Measurement of intracellular concentrations of drugs were adjusted for protein concentrations in each sample. The incubation concentrations were also adjusted for protein concentration in each sample to evaluate the access in percentage. […] The same analysis was performed for intracellular concentrations of pentoxifylline during hypothermia compared to baseline (37 °C). When data was not normally distributed ANOVA on ranks and Dunn`s post hoc test was performed. Data are presented as mean ± standard error of the mean (SEM). p-values were considered significant when < 0.05.

Recombinant human PDE3 = test: Inhibition of PDE3-mediated enzymatic breakdown of cAMP; format: biochemical; conditions: for Ki: Cheng-Prusoff; for [PDE3-inhibition]/[PDE5-inhibition] / [PDE3-inhibition]/[cAMP-efflux inhibition]: ratio between IC50-values
Description: (§4) Assessment of pentoxifyllines ability to inhibit the phosphodiesterase enzymes were performed by incubating cAMP or cGMP with seven different concentrations of pentoxifylline. The concentrations were increasing by a factor of 10 ranging from 1.00 nM to 1.00 mM. For PDE3 assessment, the incubation solution included cAMP and for PDE5 assessment it included cGMP. Experiments were performed in triplicates each day at three separate days - in total 9 parallels. The reaction was started by adding either a solution containing 0.016 units/µg protein of PDE3 (Abcam, Cambridge UK), or 0.022 units/µg protein of PDE5 (Sigma-Aldrich, St. Louis, USA), to the Eppendorf tubes. Control samples were free of drug and was either with or without PDE3 or PDE5. This was done to assure that only the relevant PDE was responsible for breakdown of the cyclic nucleotide, as no other enzyme nor cellular material was added to the incubations. The incubation time was 30 min. Reaction was stopped by adding methanol to the tubes. Internal standard of cGMP/GMP or cAMP/AMP (Sigma-Aldrich, St. Louis, MO, USA, Germany and Toronto Research Chemicals Inc., Ontario, Canada) were added to each sample. 5 samples contained only known concentrations of cGMP/GMP or cAMP/AMP and served as calibrators. Samples were analyzed for cGMP/GMP and cAMP/AMP content, using MS [14, 15].
Quantification of cAMP/AMP, cGMP/GMP and pentoxifylline in PDE- and intracellular access experiments were performed with liquid chromatography tandem mass spectrometry (LC–MS/MS). Preparation of samples for LC–MS/MS-analysis is described in paragraphs above.
as §3

Recombinant human PDE5 = target: T2, Recombinant human PDE5 (Homo sapiens, UniProt O76074); test: Inhibition of PDE5-mediated enzymatic breakdown of cGMP; format: biochemical; conditions: for Ki: Cheng-Prusoff; for [PDE5-inhibition]/[cGMP-efflux inhibition]: ratio between IC50-values
T2 construct: purchased Sigma-Aldrich
Description: as §4
Quantification of cAMP/AMP, cGMP/GMP and pentoxifylline in PDE- and intracellular access experiments were performed with liquid chromatography tandem mass spectrometry (LC–MS/MS). Preparation of samples for LC–MS/MS-analysis is described in paragraphs above. […] For GMP the method was linear from 2 nM to at least 2000 nM (r^2 > 0.998), and 10 nM to at least 5000 nM for pentoxifylline (r^2 > 0.998).
Analysis and graph production were performed in SigmaPlot 14.0 (Systat Software, San Jose, CA, USA.). Ability to inhibit the different elimination pathways, enzymes and efflux pumps, were calculated as IC50-values, as according to Chou. Ki-values were obtained by using the methods described by Cheng and Prustoff. Measurement of intracellular concentrations of drugs were adjusted for protein concentrations in each sample. The incubation concentrations were also adjusted for protein concentration in each sample to evaluate the access in percentage. Analysis of variance (ANOVA) with Holm-Sidak multiple comparison post-hoc test was performed to evaluate changes in IC50-values compared to baseline (37 °C) for all elimination pathways. The same analysis was performed for intracellular concentrations of pentoxifylline during hypothermia compared to baseline (37 °C). When data was not normally distributed ANOVA on ranks and Dunn`s post hoc test was performed. Data are presented as mean ± standard error of the mean (SEM). p-values were considered significant when < 0.05.

ABCC5 = target: T3, ABCC5 (Homo sapiens, UniProt O15440); test: Inhibition of [3H]-cGMP efflux in erythrocyte inside-out vesicles; format: biochemical; conditions: for Ki: Cheng-Prusoff
T3 construct: inside-out vesicles (IOV)s where erythrocytes from healthy, human donors were sampled; endogenous in cells; host or cells: inside-out vesicles from erythrocytes of healthy human donors
Description: as §1, §2, §3

[1] = parameters: method as in PMID 26870389; conditions: review on cardiovascular effects; cited from earlier work

T3 sequence (O15440 whole entry): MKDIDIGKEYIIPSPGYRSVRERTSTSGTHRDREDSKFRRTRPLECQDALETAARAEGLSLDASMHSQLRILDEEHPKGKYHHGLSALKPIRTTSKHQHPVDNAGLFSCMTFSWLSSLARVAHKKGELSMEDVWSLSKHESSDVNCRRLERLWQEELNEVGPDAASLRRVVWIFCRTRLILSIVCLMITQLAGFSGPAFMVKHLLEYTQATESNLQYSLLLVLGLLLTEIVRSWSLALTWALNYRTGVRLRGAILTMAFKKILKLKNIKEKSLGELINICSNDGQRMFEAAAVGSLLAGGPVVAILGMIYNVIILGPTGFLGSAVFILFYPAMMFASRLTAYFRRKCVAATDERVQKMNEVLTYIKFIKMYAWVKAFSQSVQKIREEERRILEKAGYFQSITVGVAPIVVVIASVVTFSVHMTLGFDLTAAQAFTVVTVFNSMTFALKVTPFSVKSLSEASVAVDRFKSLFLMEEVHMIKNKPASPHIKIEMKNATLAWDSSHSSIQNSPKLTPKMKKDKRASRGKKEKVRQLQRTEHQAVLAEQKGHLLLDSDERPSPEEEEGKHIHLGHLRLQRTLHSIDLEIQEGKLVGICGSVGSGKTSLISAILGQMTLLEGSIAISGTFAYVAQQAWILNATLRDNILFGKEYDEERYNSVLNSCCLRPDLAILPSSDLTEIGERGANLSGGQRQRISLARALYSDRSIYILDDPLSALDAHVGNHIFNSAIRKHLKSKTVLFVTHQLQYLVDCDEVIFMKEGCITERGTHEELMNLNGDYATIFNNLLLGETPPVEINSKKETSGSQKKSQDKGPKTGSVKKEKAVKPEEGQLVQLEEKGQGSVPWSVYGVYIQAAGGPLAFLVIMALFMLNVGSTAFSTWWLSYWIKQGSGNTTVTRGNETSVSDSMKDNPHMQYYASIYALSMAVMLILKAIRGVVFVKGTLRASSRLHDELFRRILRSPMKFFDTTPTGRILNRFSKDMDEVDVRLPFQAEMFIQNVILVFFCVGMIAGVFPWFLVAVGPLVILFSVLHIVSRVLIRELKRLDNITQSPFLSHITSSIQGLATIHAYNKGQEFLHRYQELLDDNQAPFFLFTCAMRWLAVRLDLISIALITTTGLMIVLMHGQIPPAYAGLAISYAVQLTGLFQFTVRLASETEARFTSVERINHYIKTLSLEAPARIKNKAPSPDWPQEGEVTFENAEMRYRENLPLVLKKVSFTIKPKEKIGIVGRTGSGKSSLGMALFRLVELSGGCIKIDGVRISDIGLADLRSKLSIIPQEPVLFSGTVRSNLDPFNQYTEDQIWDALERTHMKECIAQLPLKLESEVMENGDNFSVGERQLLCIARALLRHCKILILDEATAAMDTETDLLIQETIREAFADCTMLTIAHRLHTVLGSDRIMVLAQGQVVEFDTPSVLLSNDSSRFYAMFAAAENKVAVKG

SMILES: CC(=O)CCCCn1c(=O)c2c(ncn2C)n(C)c1=O [pentoxifylline]
- Ki (ABCC4; 28 °C): 0.918 ± 0.465 µM
- [cAMP-efflux inhibition]/[cGMP-efflux inhibition] (ABCC4; 28 °C): 2.27
- IC50 (ABCC4; 28 °C): 1.93 ± 1.11 µM
- Ki (ABCC4; 32 °C): 1.16 ± 0.526 µM
- [cAMP-efflux inhibition]/[cGMP-efflux inhibition] (ABCC4; 32 °C): 2.78
- IC50 (ABCC4; 32 °C): 2.01 ± 0.819 µM
- Ki (ABCC4; 34 °C): 2.03 ± 1.46 µM
- [cAMP-efflux inhibition]/[cGMP-efflux inhibition] (ABCC4; 34 °C): 4.04
- IC50 (ABCC4; 34 °C): 3.61 ± 2.59 µM
- Ki (ABCC4; 37 °C): 0.805 ± 0.343 µM
- [cAMP-efflux inhibition]/[cGMP-efflux inhibition] (ABCC4; 37 °C): 2.50
- IC50 (ABCC4; 37 °C): 1.33 ± 0.566 µM
- Inhibition of cAMP-efflux (ABCC4-activity) (ABCC4; temperatures below 28 °C (24 and 20 °C)): no inhibition
- IC50 (Recombinant human PDE3; 20 °C): 31 ± 9.47 µM
- Ki (Recombinant human PDE3; 20 °C): 1.42 ± 0.434 µM
- [PDE3-inhibition]/[PDE5-inhibition] (Recombinant human PDE3; 20 °C): 0.788
- IC50 (Recombinant human PDE3; 24 °C): 29.2 ± 4.72 µM
- Ki (Recombinant human PDE3; 24 °C): 1.34 ± 0.216 µM
- [PDE3-inhibition]/[PDE5-inhibition] (Recombinant human PDE3; 24 °C): 1.16
- IC50 (Recombinant human PDE3; 28 °C): 22.4 ± 6.36 µM
- Ki (Recombinant human PDE3; 28 °C): 1.02 ± 0.291 µM
- [PDE3-inhibition]/[PDE5-inhibition] (Recombinant human PDE3; 28 °C): 0.920
- [PDE3-inhibition]/[cAMP-efflux inhibition] (Recombinant human PDE3; 28 °C): 11.6
- IC50 (Recombinant human PDE3; 32 °C): 26.7 ± 4.7 µM
- Ki (Recombinant human PDE3; 32 °C): 1.22 ± 0.215 µM
- [PDE3-inhibition]/[PDE5-inhibition] (Recombinant human PDE3; 32 °C): 1.72
- [PDE3-inhibition]/[cAMP-efflux inhibition] (Recombinant human PDE3; 32 °C): 13.3
- IC50 (Recombinant human PDE3; 34 °C): 14.2 ± 1.51 µM
- Ki (Recombinant human PDE3; 34 °C): 0.651 ± 0.069 µM
- [PDE3-inhibition]/[PDE5-inhibition] (Recombinant human PDE3; 34 °C): 1.33
- [PDE3-inhibition]/[cAMP-efflux inhibition] (Recombinant human PDE3; 34 °C): 3.94
- IC50 (Recombinant human PDE3; 37 °C): 15.8 ± 4.25 µM
- Ki (Recombinant human PDE3; 37 °C): 0.723 ± 0.195 µM
- [PDE3-inhibition]/[PDE5-inhibition] (Recombinant human PDE3; 37 °C): 2.05
- [PDE3-inhibition]/[cAMP-efflux inhibition] (Recombinant human PDE3; 37 °C): 11.9
- IC50 (Recombinant human PDE5; 20 °C): 39.4 ± 10.9 µM
- Ki (Recombinant human PDE5; 20 °C): 10 ± 2.78 µM
- [PDE5-inhibition]/[cGMP-efflux inhibition] (Recombinant human PDE5; 20 °C): 102
- IC50 (Recombinant human PDE5; 24 °C): 25.2 ± 6.57 µM
- Ki (Recombinant human PDE5; 24 °C): 6.4 ± 1.67 µM
- [PDE5-inhibition]/[cGMP-efflux inhibition] (Recombinant human PDE5; 24 °C): 50.2
- IC50 (Recombinant human PDE5; 28 °C): 24.3 ± 5.58 µM
- Ki (Recombinant human PDE5; 28 °C): 6.17 ± 1.42 µM
- [PDE5-inhibition]/[cGMP-efflux inhibition] (Recombinant human PDE5; 28 °C): 28.6
- IC50 (Recombinant human PDE5; 32 °C): 15.5 ± 0.753 µM
- Ki (Recombinant human PDE5; 32 °C): 3.94 ± 0.191 µM
- [PDE5-inhibition]/[cGMP-efflux inhibition] (Recombinant human PDE5; 32 °C): 21.4
- IC50 (Recombinant human PDE5; 34 °C): 10.7 ± 1.92 µM
- Ki (Recombinant human PDE5; 34 °C): 2.71 ± 0.487 µM
- [PDE5-inhibition]/[cGMP-efflux inhibition] (Recombinant human PDE5; 34 °C): 12.0
- IC50 (Recombinant human PDE5; 37 °C): 7.7 ± 0.265 µM
- Ki (Recombinant human PDE5; 37 °C): 1.95 ± 0.067 µM
- [PDE5-inhibition]/[cGMP-efflux inhibition] (Recombinant human PDE5; 37 °C): 14.5
- IC50 (ABCC5; 20 °C): 0.388 ± 0.07 µM
- IC50 (ABCC5; 24 °C): 0.502 ± 0.315 µM
- Ki (ABCC5; 24 °C): 0.32 ± 0.183 µM
- IC50 (ABCC5; 28 °C): 0.851 ± 0.281 µM
- Ki (ABCC5; 28 °C): 0.481 ± 0.159 µM
- IC50 (ABCC5; 32 °C): 0.724 ± 0.206 µM
- Ki (ABCC5; 32 °C): 0.409 ± 0.116 µM
- IC50 (ABCC5; 34 °C): 0.893 ± 0.401 µM
- Ki (ABCC5; 34 °C): 0.505 ± 0.226 µM
- IC50 (ABCC5; 37 °C): 0.531 ± 0.338 µM
- Ki (ABCC5; 37 °C): 0.3 ± 0.191 µM
- clinical serum concentrations [1]: 1 to 10 µM
